# Changes are numbered by the printed parent chain.
# Tests used:
# Assay in all cases: KINOMEscan kinase binding assay (Eurofins/DiscoveRx), % Ctrl
# Conditions in all cases: 1 μM
# [1] = biological target: T1, kinases (Homo sapiens, UniProt P09619)
# T1 construct: purchased Eurofins/DiscoveRx; host or cells: E. coli BL21-derived host (T7 phage display) for most kinases; HEK-293 for the rest
# Experimental: (§1) Kinase binding assays were performed at Eurofins/DiscoveRx using the general KINOMEscan Protocol (Fabian, M. A. et al., “A small molecule-kinase interaction map for clinical kinase inhibitors,” Nat. Biotechnol. 2005, 23(3):329-36). For most assays, kinase-tagged T7 phage strains were prepared in an E. coli host derived from the BL21 strain. E. coli were grown to log-phase and infected with T7 phage and incubated with shaking at 32° C. until lysis. The lysates were centrifuged and filtered to remove cell debris. The remaining kinases were produced in HEK-293 cells and subsequently tagged with DNA for qPCR detection. Streptavidin-coated magnetic beads were treated with biotinylated small molecule ligands for 30 minutes at room temperature to generate affinity resins for kinase assays. The liganded beads were blocked with excess biotin and washed with blocking buffer (SeaBlock (Pierce), 1% BSA, 0.05% Tween 20, 1 mM DTT) to remove unbound ligand and to reduce nonspecific binding. Binding reactions were assembled by combining kinases, liganded affinity beads, and test compounds in 1×binding buffer (20% SeaBlock, 0.17×PBS, 0.05% Tween 20, 6 mM DTT). All reactions were performed in polystyrene 96-well plates in a final volume of 0.135 mL. The assay plates were incubated at room temperature with shaking for 1 hour and the affinity beads were washed with washbuffer (1×PBS, 0.05% Tween 20). The beads were then re-suspended in elution buffer (1× PBS, 0.05% Tween 20, 0.5 μM non-biotinylated affinity ligand) and incubated at room temperature with shaking for 30 minutes. The kinase concentration in the eluates was measured by qPCR. Results for compounds tested in this assay at a given concentration are reported as “% Ctrl”, where lower numbers indicate stronger binding in the matrix.
# (§2) (test compound signal-positive control signal)/(negative control signal-positive control signal) X100
# [2] = biological target: T2, kinases (Homo sapiens, UniProt P10721, T670I/V559D)
# T2 construct: purchased Eurofins/DiscoveRx; host or cells: E. coli BL21-derived host (T7 phage display) for most kinases; HEK-293 for the rest
# Experimental: as §1, §2
# [3] = biological target: T3, kinases (Homo sapiens, UniProt P10721, V559D/V654A)
# T3 construct: purchased Eurofins/DiscoveRx; host or cells: E. coli BL21-derived host (T7 phage display) for most kinases; HEK-293 for the rest
# Experimental: as §1, §2
# [4] = biological target: T4, kinases (Homo sapiens, UniProt P17948)
# T4 construct: purchased Eurofins/DiscoveRx; host or cells: E. coli BL21-derived host (T7 phage display) for most kinases; HEK-293 for the rest
# Experimental: as §1, §2
# [5] = biological target: T5, kinases (Homo sapiens, UniProt P36888)
# T5 construct: purchased Eurofins/DiscoveRx; host or cells: E. coli BL21-derived host (T7 phage display) for most kinases; HEK-293 for the rest
# T5 sequence (P36888 27-993): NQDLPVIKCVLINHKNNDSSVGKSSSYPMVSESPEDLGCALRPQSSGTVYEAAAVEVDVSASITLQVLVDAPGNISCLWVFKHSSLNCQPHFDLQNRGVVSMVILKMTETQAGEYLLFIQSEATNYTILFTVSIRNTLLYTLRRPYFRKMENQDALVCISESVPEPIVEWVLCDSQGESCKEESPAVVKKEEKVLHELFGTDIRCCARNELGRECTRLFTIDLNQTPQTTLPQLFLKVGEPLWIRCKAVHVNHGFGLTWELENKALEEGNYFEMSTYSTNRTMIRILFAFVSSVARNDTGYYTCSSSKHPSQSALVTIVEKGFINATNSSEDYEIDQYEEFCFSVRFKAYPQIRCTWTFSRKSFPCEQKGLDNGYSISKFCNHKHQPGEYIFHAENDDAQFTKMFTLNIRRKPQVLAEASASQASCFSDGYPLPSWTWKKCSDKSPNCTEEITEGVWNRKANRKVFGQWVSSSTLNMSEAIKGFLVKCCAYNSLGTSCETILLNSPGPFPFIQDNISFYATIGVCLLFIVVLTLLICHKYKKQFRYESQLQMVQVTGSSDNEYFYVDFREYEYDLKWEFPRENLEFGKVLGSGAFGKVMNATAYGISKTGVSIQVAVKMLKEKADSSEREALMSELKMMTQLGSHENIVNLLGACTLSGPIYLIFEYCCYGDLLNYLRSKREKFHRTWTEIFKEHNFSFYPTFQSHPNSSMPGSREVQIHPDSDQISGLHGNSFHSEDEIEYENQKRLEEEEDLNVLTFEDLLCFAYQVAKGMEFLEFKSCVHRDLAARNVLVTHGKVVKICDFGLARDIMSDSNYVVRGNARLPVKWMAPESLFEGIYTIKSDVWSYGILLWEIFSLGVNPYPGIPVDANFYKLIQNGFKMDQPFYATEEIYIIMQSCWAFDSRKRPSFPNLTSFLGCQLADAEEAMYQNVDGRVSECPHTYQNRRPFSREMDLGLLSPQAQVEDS
# Experimental: as §1, §2
# [6] = biological target: T6, kinases (Homo sapiens, UniProt P36888, R834Q)
# T6 construct: purchased Eurofins/DiscoveRx; host or cells: E. coli BL21-derived host (T7 phage display) for most kinases; HEK-293 for the rest
# T6 sequence (P36888 27-993 R834Q): T5 sequence (P36888 27-993) with R808Q
# Experimental: as §1, §2
# T1 sequence (P09619 33-1106): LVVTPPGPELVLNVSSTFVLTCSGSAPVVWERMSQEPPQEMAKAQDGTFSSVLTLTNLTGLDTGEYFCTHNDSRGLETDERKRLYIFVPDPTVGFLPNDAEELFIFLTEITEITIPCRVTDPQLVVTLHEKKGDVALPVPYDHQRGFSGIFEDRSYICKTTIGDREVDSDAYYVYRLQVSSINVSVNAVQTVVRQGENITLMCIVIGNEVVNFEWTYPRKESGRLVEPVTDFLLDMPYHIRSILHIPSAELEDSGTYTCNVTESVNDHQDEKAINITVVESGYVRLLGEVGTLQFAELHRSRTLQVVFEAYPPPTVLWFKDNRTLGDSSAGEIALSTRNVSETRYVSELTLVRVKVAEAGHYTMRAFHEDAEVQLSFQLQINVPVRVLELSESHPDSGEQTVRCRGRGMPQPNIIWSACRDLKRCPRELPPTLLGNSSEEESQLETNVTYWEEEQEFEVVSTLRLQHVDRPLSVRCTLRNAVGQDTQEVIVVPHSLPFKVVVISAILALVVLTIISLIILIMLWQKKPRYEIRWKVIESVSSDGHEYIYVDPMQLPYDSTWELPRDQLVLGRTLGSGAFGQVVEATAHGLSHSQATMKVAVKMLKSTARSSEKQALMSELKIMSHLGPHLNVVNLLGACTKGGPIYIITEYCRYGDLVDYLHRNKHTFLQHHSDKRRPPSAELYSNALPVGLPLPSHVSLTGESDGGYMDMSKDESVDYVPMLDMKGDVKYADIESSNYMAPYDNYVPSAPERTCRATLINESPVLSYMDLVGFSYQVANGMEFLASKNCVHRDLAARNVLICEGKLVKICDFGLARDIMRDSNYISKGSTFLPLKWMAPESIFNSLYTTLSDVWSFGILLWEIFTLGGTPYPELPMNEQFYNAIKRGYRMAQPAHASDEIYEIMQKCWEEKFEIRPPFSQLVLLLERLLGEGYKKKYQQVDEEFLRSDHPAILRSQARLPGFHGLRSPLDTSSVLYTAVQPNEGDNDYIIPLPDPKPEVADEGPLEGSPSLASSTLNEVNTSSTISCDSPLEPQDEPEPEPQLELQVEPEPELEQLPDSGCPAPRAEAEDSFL
# T3 sequence (P10721 26-976 V559D/V654A): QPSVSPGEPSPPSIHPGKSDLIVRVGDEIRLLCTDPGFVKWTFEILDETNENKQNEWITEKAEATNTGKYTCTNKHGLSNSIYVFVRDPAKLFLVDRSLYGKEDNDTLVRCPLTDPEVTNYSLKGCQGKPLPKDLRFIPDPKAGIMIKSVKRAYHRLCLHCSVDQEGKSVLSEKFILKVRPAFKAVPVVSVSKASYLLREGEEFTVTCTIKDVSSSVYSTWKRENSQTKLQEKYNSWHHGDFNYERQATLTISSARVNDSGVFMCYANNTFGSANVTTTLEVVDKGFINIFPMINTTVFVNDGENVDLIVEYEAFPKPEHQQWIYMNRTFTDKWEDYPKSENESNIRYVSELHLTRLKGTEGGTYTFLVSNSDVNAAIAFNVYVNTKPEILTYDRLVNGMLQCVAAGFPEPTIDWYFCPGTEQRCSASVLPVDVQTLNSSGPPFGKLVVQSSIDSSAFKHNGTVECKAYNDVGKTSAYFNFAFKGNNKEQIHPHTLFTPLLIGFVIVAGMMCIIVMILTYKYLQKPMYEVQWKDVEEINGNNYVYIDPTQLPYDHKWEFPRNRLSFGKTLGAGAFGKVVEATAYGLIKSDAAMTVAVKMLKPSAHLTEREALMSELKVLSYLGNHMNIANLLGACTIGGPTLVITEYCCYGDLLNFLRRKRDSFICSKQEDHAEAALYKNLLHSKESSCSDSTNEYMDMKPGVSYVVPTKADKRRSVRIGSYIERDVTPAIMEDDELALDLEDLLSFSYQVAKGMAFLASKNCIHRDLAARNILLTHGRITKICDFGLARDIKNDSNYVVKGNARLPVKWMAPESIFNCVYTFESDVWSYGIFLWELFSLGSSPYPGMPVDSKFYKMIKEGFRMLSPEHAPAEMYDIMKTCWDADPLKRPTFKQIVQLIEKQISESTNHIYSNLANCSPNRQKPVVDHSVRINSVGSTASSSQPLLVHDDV
# T2 sequence (P10721 26-976 V559D/T670I): as the sequence (P10721 26-976 V559D/V654A) above, with A629V, T645I counted along it
# T4 sequence (P17948 27-1338): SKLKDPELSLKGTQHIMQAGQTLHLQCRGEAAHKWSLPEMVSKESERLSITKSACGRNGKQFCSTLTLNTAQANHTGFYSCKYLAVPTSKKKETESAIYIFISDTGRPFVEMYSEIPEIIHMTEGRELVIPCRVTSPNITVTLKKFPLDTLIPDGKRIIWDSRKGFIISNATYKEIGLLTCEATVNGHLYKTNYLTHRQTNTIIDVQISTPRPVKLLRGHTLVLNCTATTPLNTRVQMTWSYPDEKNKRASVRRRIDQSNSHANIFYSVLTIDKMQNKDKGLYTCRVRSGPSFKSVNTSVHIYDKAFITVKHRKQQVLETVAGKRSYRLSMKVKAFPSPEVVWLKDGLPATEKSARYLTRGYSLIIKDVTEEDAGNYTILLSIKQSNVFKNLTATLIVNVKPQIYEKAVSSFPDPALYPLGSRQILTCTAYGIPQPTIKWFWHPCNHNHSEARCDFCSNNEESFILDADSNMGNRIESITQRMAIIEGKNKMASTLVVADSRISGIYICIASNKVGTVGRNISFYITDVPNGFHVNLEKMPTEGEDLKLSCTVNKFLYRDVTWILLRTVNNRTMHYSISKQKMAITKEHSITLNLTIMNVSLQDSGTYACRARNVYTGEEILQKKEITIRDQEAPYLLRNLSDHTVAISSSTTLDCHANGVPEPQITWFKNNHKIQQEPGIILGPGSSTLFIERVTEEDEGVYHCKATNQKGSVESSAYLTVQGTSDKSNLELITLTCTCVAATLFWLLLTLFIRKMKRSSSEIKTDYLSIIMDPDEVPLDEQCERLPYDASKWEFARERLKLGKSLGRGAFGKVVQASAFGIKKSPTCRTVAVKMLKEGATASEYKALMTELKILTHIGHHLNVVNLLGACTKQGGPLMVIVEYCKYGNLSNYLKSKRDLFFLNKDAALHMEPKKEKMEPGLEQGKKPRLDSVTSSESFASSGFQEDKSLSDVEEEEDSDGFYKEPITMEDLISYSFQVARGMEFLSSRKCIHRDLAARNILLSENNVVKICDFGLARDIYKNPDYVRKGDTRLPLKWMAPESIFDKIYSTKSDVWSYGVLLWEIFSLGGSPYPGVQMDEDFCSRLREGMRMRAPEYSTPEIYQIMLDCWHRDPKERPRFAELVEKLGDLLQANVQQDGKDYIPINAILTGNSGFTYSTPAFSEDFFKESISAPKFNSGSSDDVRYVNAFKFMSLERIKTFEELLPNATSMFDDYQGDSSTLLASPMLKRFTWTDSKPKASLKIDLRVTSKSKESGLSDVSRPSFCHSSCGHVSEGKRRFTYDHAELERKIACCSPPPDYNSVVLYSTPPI
SMILES,"% Ctrl, PDGFRB ([1]; PDGFRB)","% Ctrl, KIT(V559D, T670I) ([2]; KIT(V559D, T670I))","% Ctrl, KIT(V559D, V654A) ([3]; KIT(V559D, V654A))","% Ctrl, FLT1 ([4]; FLT1)","% Ctrl, FLT3 ([5]; FLT3)","% Ctrl, FLT3-autoinhibited ([5]; FLT3-autoinhibited)","% Ctrl, FLT3(R834Q) ([6]; FLT3(R834Q))","% Ctrl, PDGFRB ([1]; target PDGFRB)","% Ctrl, KIT(V559D, T670I) ([2]; target KIT(V559D, T670I))","% Ctrl, KIT(V559D, V654A) ([3]; target KIT(V559D, V654A))","% Ctrl, FLT1 ([4]; target FLT1)","% Ctrl, FLT3-autoinhibited ([5]; target FLT3-autoinhibited)","% Ctrl, FLT3 ([5]; target FLT3)","% Ctrl, FLT3(R834Q) ([6]; target FLT3(R834Q))"
"Cc1cc2c([nH]1)/C=C1\C(=O)Nc3ccc(cc31)-c1ccnn1CCOCCN(C)C2=O [Ex. 41, [19a(20)Z]-2,5-dimethyl-6,7,9,10-tetrahydro-1H-15,17-(ethanediylidene)pyrazolo[1,5-d]dipyrrolo[3,4-h:2′,3′-k][1,4,14]oxadiazacyclohexadecine-4,19(5H,18H)-dione]",5.5 % Ctrl,30 % Ctrl,93 % Ctrl,81 % Ctrl,5.5 % Ctrl,50 % Ctrl,15 % Ctrl,–,–,–,–,–,–,–
"Cc1cc2c([nH]1)/C=C1\C(=O)Nc3ccc(cc31)-c1ccnn1CCNCCNC2=O [Ex. 43, [19a(20)Z]-2-methyl-5,6,7,8,9,10-hexahydro-15,17-(ethanediylidene)pyrazolo[1,5-g]dipyrrolo[3,4-k:2′,3′-n][1,4,7]triazacyclohexadecine-4,19(1H,18H)-dione]",98 % Ctrl,92 % Ctrl,100 % Ctrl,96 % Ctrl,99 % Ctrl,77 % Ctrl,85 % Ctrl,–,–,–,–,–,–,–
"Cc1cc2c([nH]1)/C=C1\C(=O)Nc3cnc(cc31)-c1cn[nH]c1CNCCN(C)C2=O [Ex. 55, [3a(4)Z]-6,9-dimethyl-9,10,11,12,13,14-hexahydro-17,1-(azenometheno)pyrazolo[4,3-m]dipyrrolo[3,2-f:3′,4′-i][1,4]diazacyclopentadecine-3,8(2,5H)-dione]",–,–,–,–,–,–,–,10 % Ctrl,50 % Ctrl,22 % Ctrl,62 % Ctrl,10 % Ctrl,11 % Ctrl,25 % Ctrl
"Cc1cc2c([nH]1)/C=C1\C(=O)Nc3ccc(cc31)O[C@@H](C)COCCN(C)C2=O [Ex. 92, [10S,16a(17)Z]-2,5,10-trimethyl-6,7,9,10-tetrahydro-1H-12,14-(ethanediylidene)dipyrrolo[3,2-i:3′,4′-l][1,4,7]dioxazacyclopentadecine-4,16(5H,15H)-dione]",71 % Ctrl,91 % Ctrl,67 % Ctrl,90 % Ctrl,77 % Ctrl,96 % Ctrl,75 % Ctrl,–,–,–,–,–,–,–
"Cc1cc2c([nH]1)/C=C1\C(=O)Nc3ccc(cc31)-c1cnn(C)c1COCCN(C)C2=O [Ex. 124, [3a(4)Z]-6,9,14-trimethyl-10,11,13,14-tetrahydro-2H-1,17-(ethanediylidene)pyrazolo[4,3-m]dipyrrolo[3,2-f:3′,4′-i][1,4]oxazacyclopentadecine-3,8(5H,9H)-dione]",0.35 % Ctrl,24 % Ctrl,7.7 % Ctrl,13 % Ctrl,0.15 % Ctrl,0.35 % Ctrl,0 % Ctrl,–,–,–,–,–,–,–
"Cc1cc2c([nH]1)/C=C1\C(=O)Nc3ccc(cc31)-c1cnn(C)c1CNCCN(C)C2=O [Ex. 125, [3a(4)Z]-6,9,14-trimethyl-9,10,11,12,13,14-hexahydro-1,17-(ethanediylidene)pyrazolo[4,3-m]dipyrrolo[3,2-f:3′,4′-i][1,4]diazacyclopentadecine-3,8(2H,5H)-dione]",0.4 % Ctrl,27 % Ctrl,6.7 % Ctrl,11 % Ctrl,0.45 % Ctrl,0.15 % Ctrl,0.3 % Ctrl,–,–,–,–,–,–,–
"Cc1cc2c([nH]1)/C=C1\C(=O)Nc3ccc(cc31)-c1cnn(C)c1CN(C)CCN(C)C2=O [Ex. 126, [3a(4)Z]-6,9,12,14-tetramethyl-9,10,11,12,13,14-hexahydro-1,17-(ethanediylidene)pyrazolo[4,3-m]dipyrrolo[3,2-f:3′,4′-i][1,4]diazacyclopentadecine-3,8(2H,5H)-dione]",0 % Ctrl,3.6 % Ctrl,0.4 % Ctrl,0.65 % Ctrl,0.2 % Ctrl,0.25 % Ctrl,0 % Ctrl,–,–,–,–,–,–,–
"Cc1cc2c([nH]1)/C=C1\C(=O)Nc3ccc(cc31)-c1c(C)n[nH]c1CNCCN(C)C2=O [Ex. 127, [3a(4)Z]-6,9,16-trimethyl-9,10,11,12,13,14-hexahydro-1,17-(ethanediylidene)pyrazolo[4,3-m]dipyrrolo[3,2-f:3′,4′-i][1,4]diazacyclopentadecine-3,8(2H,5H)-dione]",28 % Ctrl,62 % Ctrl,89 % Ctrl,54 % Ctrl,4.6 % Ctrl,9.9 % Ctrl,13 % Ctrl,–,–,–,–,–,–,–

# — patent publication US20230257396A1, “MACROCYCLES AND THEIR USE” (BLOSSOMHILL THERAPEUTICS, INC., priority 2020, published 2023)
